Measurements reported in US9296734B2 (AMGEN INC., priority 2013, dated 2016).
Where two headings read alike, the source gives them in different places.

Assays:
Cathepsin D (Cat D) = Cathepsin D (Cat D) (Homo sapiens (Human), UniProt P07339); experiment: In vitro enzymatic Cathepsin D (Cat D) FRET assay; type: biochemical; details: read-out: CatD IC50
Protocol: In Vitro Enzymatic Cathepsin D (Cat D) FRET (Fluorescence Resonance Energy Transfer) Assay
Recombinant Cat D was expressed in CHO cells. The assay buffer for CathepsinD is 0.05 M citrate pH 3.5, 10% DMSO final, 5 mM CHAPS. […] The assays are effectively started by the addition of different FRET substrates (20 nM for Cat D) and the combination is incubated for one hour. The FRET assay is terminated with by addition of Tris buffer, which raises the pH to neutrality, and the fluorescence is determined. The FRET substrate is a peptide with commercially available fluorophore and quencher, on opposite sides of the BACE cleavage site. […] Proteolytic cleavage of the FRET substrate releases quenching of fluorescence (Cat D excitation 500 nm and emission 580 nm).
In addition, the cathepsin D and cathepsin E assays are described in PCT publication WO2011069934.

[1] = biological target: Beta Secretase enzyme (BACE) (Homo sapiens (Human), UniProt P56817); experiment: In vitro enzymatic BACE FRET assay; type: biochemical; details: read-out: BACE 1 FRET assay IC50
Protocol: In Vitro Enzymatic BACE FRET (Fluorescence Resonance Energy Transfer) Assay (Enzyme Assay Data in the Example Table I)
The assay buffer used in this screen is 0.05 M acetate, pH 4.2, 10% DMSO final, 100 uM genapol (which is a nonionic detergent, below its Critical Micelle Concentration). […] This assay is effectively started by the addition of FRET substrate (50 nM) and the combination is incubated for one hour. The FRET assay is terminated with by addition of Tris buffer, which raises the pH to neutrality, and the fluorescence is determined. The FRET substrate is a peptide with commercially available fluorophore and quencher, on opposite sides of the BACE cleavage site.

[2] = test system: Aβ40 in conditioned medium of cells stably expressing Amyloid Precursor Protein (APP); experiment: In vitro BACE cell-based assay (Aβ40 sandwich ELISA); details: Homo sapiens
Protocol: In Vitro BACE Cell-Based Assay
The cell-based assay measures inhibition or reduction of Aβ40 in conditioned medium of test compound treated cells expressing amyloid precursor protein.
Cells stably expressing Amyloid Precursor Protein (APP) were plated at a density of 40K cells/well in 96 well plates (Costar). The cells were cultivated for 24 hours at 37° C. and 5% CO2 in DMEM supplemented with 10% FBS. The test compounds were then added to cells in 10-point dose response concentrations with the starting concentration being either 100 μM or 10 μM. The compounds were diluted from stock solutions in DMSO and the final DMSO concentration of the test compounds on cells was 0.1%. After 24 h of incubation with the test compounds the supernatant conditioned media was collected and the Aβ 40 levels were determined using a sandwich ELISA. The IC50 of the compound was calculated from the percent of control or percent inhibition of Aβ 40 as a function of the concentration of the test compound.
The sandwich ELISA to detect Aβ 40 was performed in 96 well microtiter plates, which were pre-treated with goat anti-rabbit IgG (Pierce). The capture and detecting antibody pair that were used to detect Aβ 40 from cell supernatants were affinity purified pAb40 (Biosource) and biotinylated 6E10 (Signet Labs Inc.), respectively. The optimal concentration for the pAb40 antibody was 3 μg/ml in Superblock/TBS (Pierce) that was supplemented with 0.05% Tween 20 (Sigma).
Cellular supernatants were incubated with the capture antibody for 3 h at 4° C., followed by 3 wash steps in TBS-tween (0.05%). The detecting antibody incubation was for 2 h at 4° C., again followed by the wash steps as described previously. The final readout of the ELISA is Time-Resolved Fluorescence (counts per minute) using Delfia reagents Streptavidin-Europium and Enhancement solutions (Perkin Elmer) and the Victor 2 multilabel counter (Perkin Elmer).

[3] = average IC50, cathepsin D enzyme assay

Chain of Cathepsin D (Cat D) (P07339 65-412, species assumed): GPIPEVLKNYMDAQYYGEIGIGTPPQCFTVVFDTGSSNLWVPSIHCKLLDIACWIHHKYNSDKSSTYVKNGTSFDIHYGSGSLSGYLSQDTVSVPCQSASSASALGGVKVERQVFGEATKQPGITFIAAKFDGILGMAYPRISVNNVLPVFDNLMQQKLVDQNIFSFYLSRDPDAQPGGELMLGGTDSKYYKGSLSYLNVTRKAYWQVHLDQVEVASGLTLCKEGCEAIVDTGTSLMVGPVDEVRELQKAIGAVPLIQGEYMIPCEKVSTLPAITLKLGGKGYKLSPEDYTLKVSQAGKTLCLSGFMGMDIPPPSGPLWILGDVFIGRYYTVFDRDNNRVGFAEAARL
Chain of Beta Secretase enzyme (BACE) (P56817 46-501): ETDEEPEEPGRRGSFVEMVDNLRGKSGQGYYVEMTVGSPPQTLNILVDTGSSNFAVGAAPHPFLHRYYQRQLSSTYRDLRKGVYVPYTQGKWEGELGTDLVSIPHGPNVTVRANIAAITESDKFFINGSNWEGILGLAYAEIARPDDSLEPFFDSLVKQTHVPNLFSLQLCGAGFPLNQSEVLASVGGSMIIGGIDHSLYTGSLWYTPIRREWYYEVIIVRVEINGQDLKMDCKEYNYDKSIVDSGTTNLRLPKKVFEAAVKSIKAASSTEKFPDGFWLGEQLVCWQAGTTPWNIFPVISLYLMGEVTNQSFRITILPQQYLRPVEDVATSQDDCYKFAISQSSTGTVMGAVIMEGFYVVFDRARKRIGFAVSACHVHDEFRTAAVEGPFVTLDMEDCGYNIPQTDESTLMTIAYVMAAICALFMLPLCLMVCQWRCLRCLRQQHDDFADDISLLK

| Compound | IC50 (Cathepsin D (Cat D); [3]) [µM] | IC50 (Cathepsin D (Cat D); average IC50) [µM] | also measured |
| --- | --- | --- | --- |
| NC1=N[C@](CF)(c2cc(-c3ccc4ccc(F)cc4n3)ccc2F)C[C@@H](C(F)(F)F)O1 [Example 117, (4S,6S)-4-(2-fluoro-5-(7-fluoroquinolin-2-yl)phenyl)-4-(fluoromethyl)-6-(trifluoromethyl)-5,6-dihydro-4H-1,3-oxazin-2-amine] | > 133 |  | IC50 ([1]; average IC50, BACE enzyme assay): > 40 µM; IC50 ([2]; HEK293, average IC50, HEK cell assay, read-out: HEK cell assay IC50): > 15.6 µM |
| NC1=N[C@](CF)(c2cc(Oc3cc(-c4ccccc4)ccn3)ccc2F)C[C@@H](C(F)(F)F)O1 [Example 102, (4S,6S)-4-(2-fluoro-5-((4-phenylpyridin-2-yl)oxy)phenyl)-4-(fluoromethyl)-6-(trifluoromethyl)-5,6-dihydro-4H-1,3-oxazin-2-amine] |  | 114 | IC50 ([2]; HEK293, read-out: HEK cell assay IC50): 2.82 µM |
| COc1cnc(C(=O)Nc2ccc(F)c([C@]3(C)C[C@@H](C(F)(F)F)OC(N)=N3)c2)cn1 [Example 27, N-(3-((4S,6S)-2-amino-4-methyl-6-(trifluoromethyl)-5,6-dihydro-4H-1,3-oxazin-4-yl)-4-fluorophenyl)-5-methoxypyrazine-2-carboxamide] |  | > 400 | IC50 ([1]; average IC50): 0.03 µM |
| N#Cc1cnc2c(Nc3ccc(F)c([C@]4(CF)C[C@@H](C(F)(F)F)OC(N)=N4)c3)ncnc2c1 [Example 23, 4-((3-((4S,6S)-2-amino-4-(fluoromethyl)-6-(trifluoromethyl)-5,6-dihydro-4H-1,3-oxazin-4-yl)-4-fluorophenyl)amino)pyrido[3,2-d]pyrimidine-7-carbonitrile] |  |  | IC50 ([2]; HEK293, average IC50, HEK cells, read-out: HEK cell assay IC50): 0.192 µM |
| C#CCOc1cnc(C(=O)Nc2cnc(F)c([C@]3(C)C[C@@H](C(F)(F)F)OC(N)=N3)c2)cn1 [Example 73, N-(5-((4S,6S)-2-amino-4-methyl-6-(trifluoromethyl)-5,6-dihydro-4H-1,3-oxazin-4-yl)-6-fluoropyridin-3-yl)-5-(prop-2-yn-1-yloxy)pyrazine-2-carboxamide] |  |  | IC50 (Cathepsin D (Cat D); average): 1690 µM |
| NC1=N[C@](CF)(c2cc(NC(=O)c3ncc(Cl)cc3F)cc(F)c2F)C[C@@H](C(F)(F)F)O1 [Example 233, N-(3-((4S,6S)-2-amino-4-(fluoromethyl)-6-(trifluoromethyl)-5,6-dihydro-4H-1,3-oxazin-4-yl)-4,5-difluorophenyl)-5-chloro-3-fluoropicolinamide] |  |  | IC50 (Cathepsin D (Cat D); average): > 400 µM |
| C[C@@]1(c2cc(NC(=O)c3ccc(Cl)cn3)cc(Cl)c2F)C[C@@H](C(F)(F)F)OC(N)=N1 [Example 207, N-(3-((4S,6S)-2-amino-4-methyl-6-(trifluoromethyl)-5,6-dihydro-4H-1,3-oxazin-4-yl)-5-chloro-4-fluorophenyl)-5-chloropicolinamide] |  |  | IC50 (Cathepsin D (Cat D); average): 386 µM |
| C[C@@]1(c2nc(Nc3ncc(F)c4cc(C#N)cnc34)ccc2F)C[C@@H](C(F)(F)F)OC(N)=N1 [Example 89, 8-((6-((4S,6S)-2-amino-4-methyl-6-(trifluoromethyl)-5,6-dihydro-4H-1,3-oxazin-4-yl)-5-fluoropyridin-2-yl)amino)-5-fluoro-1,7-naphthyridine-3-carbonitrile] |  | 229 |  |
| NC1=N[C@](CF)(c2cc(NC(=O)c3ncc(Br)cc3Cl)ccc2F)C[C@@H](C(F)(F)F)O1 [Example 56, N-(3-((4S,6S)-2-amino-4-(fluoromethyl)-6-(trifluoromethyl)-5,6-dihydro-4H-1,3-oxazin-4-yl)-4-fluorophenyl)-5-bromo-3-chloro-2-pyridinecarboxamide] |  | > 400 |  |
| Cc1nc(OCC(F)(F)F)cnc1C(=O)Nc1ccc(F)c([C@]2(CF)C[C@@H](C(F)(F)F)OC(N)=N2)c1 [Example 38, N-(3-((4S,6S)-2-amino-4-(fluoromethyl)-6-(trifluoromethyl)-5,6-dihydro-4H-1,3-oxazin-4-yl)-4-fluorophenyl)-3-methyl-5-(2,2,2-trifluoroethoxy)pyrazine-2-carboxamide] | > 400 |  |  |
| N#Cc1cncc(-c2ccc(F)c([C@]3(CF)C[C@@H](C(F)(F)F)OC(N)=N3)c2)c1 [Example 103, 5-(3-((4S,6S)-2-amino-4-(fluoromethyl)-6-(trifluoromethyl)-5,6-dihydro-4H-1,3-oxazin-4-yl)-4-fluorophenyl)nicotinonitrile] |  | 129 |  |
| NC1=N[C@](CF)(c2cc(NC(=O)c3ncc(C(F)(F)F)cc3Cl)ccc2F)C[C@@H](C(F)(F)F)O1 [Example 44, N-(3-((4S,6S)-2-amino-4-(fluoromethyl)-6-(trifluoromethyl)-5,6-dihydro-4H-1,3-oxazin-4-yl)-4-fluorophenyl)-3-chloro-5-(trifluoromethyl)picolinamide] | > 400 |  |  |
| C[C@@]1(c2nc(NC(=O)c3ncc(C(F)(F)F)cc3Cl)ccc2F)C[C@@H](C(F)(F)F)OC(N)=N1 [Example 81, N-(6-((4S,6S)-2-amino-4-methyl-6-(trifluoromethyl)-5,6-dihydro-4H-1,3-oxazin-4-yl)-5-fluoropyridin-2-yl)-3-chloro-5-(trifluoromethyl)-picolinamide] |  | > 400 |  |
| NC1=N[C@](CF)(c2cc(Oc3ccccn3)ccc2F)C[C@@H](C(F)(F)F)O1 [Example 101, (4S,6S)-4-(2-fluoro-5-(pyridin-2-yloxy)phenyl)-4-(fluoromethyl)-6-(trifluoromethyl)-5,6-dihydro-4H-1,3-oxazin-2-amine] | > 400 |  |  |
| COc1cnc(C(=O)Nc2ccc(F)c([C@]3(C)C[C@@H](C(F)(F)F)OC(N)=N3)n2)c(Cl)c1 [Example 80, N-(6-((4S,6S)-2-amino-4-methyl-6-(trifluoromethyl)-5,6-dihydro-4H-1,3-oxazin-4-yl)-5-fluoropyridin-2-yl)-3-chloro-5-methoxypicolinamide] | 658 |  |  |
| COc1ccc(C(=O)Nc2cccc([C@]3(CF)C[C@@H](C(F)(F)F)OC(N)=N3)c2)nc1 [Example 145, N-(3-((4S,6S)-2-amino-4-(fluoromethyl)-6-(trifluoromethyl)-5,6-dihydro-4H-1,3-oxazin-4-yl)phenyl)-5-methoxypicolinamide] |  | 3520 |  |
| COc1cnc(C(=O)Nc2cc(F)c(Cl)c([C@]3(C)C[C@@H](C(F)(F)F)OC(N)=N3)c2)cn1 [Example 237, N-(3-((4S,6S)-2-amino-4-methyl-6-(trifluoromethyl)-5,6-dihydro-4H-1,3-oxazin-4-yl)-4-chloro-5-fluorophenyl)-5-methoxypyrazine-2-carboxamide] |  |  | IC50 (Cathepsin D (Cat D); average): 194 µM |
| COc1ccc(C(=O)Nc2cnc(F)c([C@]3(C)C[C@@H](C(F)(F)F)OC(N)=N3)c2)nc1 [Example 63, N-(5-((4S,6S)-2-amino-4-methyl-6-(trifluoromethyl)-5,6-dihydro-4H-1,3-oxazin-4-yl)-6-fluoropyridin-3-yl)-5-methoxypicolinamide] | > 400 |  |  |
| Cc1cc(C#N)cnc1C(=O)Nc1cc(Cl)c(F)c([C@]2(C)C[C@@H](C(F)(F)F)OC(N)=N2)c1 [Example 210, N-(3-((4S,6S)-2-amino-4-methyl-6-(trifluoromethyl)-5,6-dihydro-4H-1,3-oxazin-4-yl)-5-chloro-4-fluorophenyl)-5-cyano-3-methylpicolinamide] |  |  | IC50 (Cathepsin D (Cat D); average): 416 µM |
| N#Cc1ccc(C(=O)Nc2ccc(F)c([C@]3(CF)C[C@@H](C(F)(F)F)OC(N)=N3)c2)nc1 [Example 59, N-(3-((4S,6S)-2-amino-4-(fluoromethyl)-6-(trifluoromethyl)-5,6-dihydro-4H-1,3-oxazin-4-yl)-4-fluorophenyl)-5-cyanopicolinamide] |  | > 400 |  |
